Test results taken from US6620828B2, “Thiazole compounds and pharmaceutical compositions for inhibiting protein kinases and methods for their use” (Agouron Pharmaceuticals, Inc., priority 1999, dated 2003).

Experiments:
Assay type in all cases: biochemical
CDK2/Cyclin A complex = CDK2/Cyclin A complex (Homo sapiens, UniProt P24941); assay: CDK2/Cyclin A assay; conditions: 1.0 μM; combinatorial library compounds
Outline: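 Radiometric assay: 150 nM CDK2/cyclin A (insect-cell CDK2, truncated cyclin A) phosphorylates His-tagged Rb fragment (residues 386-928) with 25 μM ATP plus [32P]ATP, pH 7.4 HEPES, 2% DMSO, 30 °C for 20 min. Filter-captured product counted by phosphorimager; apparent Ki from competitive or tight-binding inhibition fits.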

FL-CHK1 = target: T1, FL-CHK1 (Homo sapiens, UniProt O14757); assay: CHK1 assay; conditions: 20 μM; combinatorial library compounds
T1 construct: C-terminally His-tagged full-length human CHK1 (FL-CHK1); 6xHis (C); made in house; host or cells: baculovirus/insect cells
T1 sequence (O14757 1-476): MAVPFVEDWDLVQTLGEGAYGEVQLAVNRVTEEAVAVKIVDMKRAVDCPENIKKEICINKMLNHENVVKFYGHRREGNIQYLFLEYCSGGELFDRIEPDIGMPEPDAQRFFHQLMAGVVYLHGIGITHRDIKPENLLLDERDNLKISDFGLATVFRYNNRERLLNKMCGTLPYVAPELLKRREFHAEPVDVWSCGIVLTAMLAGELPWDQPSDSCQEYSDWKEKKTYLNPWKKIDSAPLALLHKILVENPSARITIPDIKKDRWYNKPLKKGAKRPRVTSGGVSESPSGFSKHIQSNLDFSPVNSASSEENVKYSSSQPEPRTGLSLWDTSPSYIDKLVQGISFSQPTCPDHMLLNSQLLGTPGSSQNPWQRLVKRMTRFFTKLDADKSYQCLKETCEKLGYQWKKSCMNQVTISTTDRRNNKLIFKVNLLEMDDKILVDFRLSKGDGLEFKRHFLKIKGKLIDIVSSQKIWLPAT
Outline: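 Full-length human CHK1 with C-terminal 6×His tag, made in baculovirus/insect cells, 10 nM, phosphorylating 0.125 mM Syntide-2 with 0.15 mM ATP in 50 mM Tris pH 7.5, 25 mM MgCl2, 400 mM NaCl. PK/LDH-coupled NADH oxidation read at 340 nm. Ki from initial rates over varied compound concentrations.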

CDK4/Cyclin D3 complex = target: T2, CDK4/Cyclin D3 complex (Homo sapiens, UniProt P11802); assay: CDK4/Cyclin D assay; conditions: 1.0 μM; combinatorial library compounds
T2 construct: made in house; host or cells: insect cells co-infected with baculovirus vectors
T2 sequence (P11802 whole entry): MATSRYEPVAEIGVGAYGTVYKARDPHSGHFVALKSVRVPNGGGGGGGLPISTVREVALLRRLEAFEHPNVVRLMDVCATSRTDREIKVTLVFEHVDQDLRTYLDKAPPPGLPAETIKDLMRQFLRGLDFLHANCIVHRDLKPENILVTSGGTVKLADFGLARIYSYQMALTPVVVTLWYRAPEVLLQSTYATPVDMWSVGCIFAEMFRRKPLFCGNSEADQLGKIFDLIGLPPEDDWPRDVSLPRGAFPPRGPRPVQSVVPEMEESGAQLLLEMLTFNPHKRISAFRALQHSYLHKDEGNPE
T2 sequence (P30281 whole entry partner): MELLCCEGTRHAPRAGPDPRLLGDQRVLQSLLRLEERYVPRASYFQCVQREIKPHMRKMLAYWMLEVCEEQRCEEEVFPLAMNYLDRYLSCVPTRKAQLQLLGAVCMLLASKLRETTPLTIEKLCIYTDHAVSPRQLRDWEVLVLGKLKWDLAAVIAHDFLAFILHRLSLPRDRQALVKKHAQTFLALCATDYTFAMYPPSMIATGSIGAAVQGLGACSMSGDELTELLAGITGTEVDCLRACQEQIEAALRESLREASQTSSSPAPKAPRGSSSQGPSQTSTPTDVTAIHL
Outline: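 Insect-cell-expressed CDK4/cyclin D3 (50 nM) phosphorylating His-tagged Rb fragment (residues 386-928) with 25 μM [^32P]ATP in HEPES pH 7.4, MgCl2, 2% DMSO; 20 min at 30 °C, EDTA stop. Filter-captured 32P by phosphorimager; apparent Ki from competitive or tight-binding inhibition fits.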

[1] = target: T3, phosphorylated VEGF-R2Δ50 (FLVK-P) (Homo sapiens, UniProt P35968, DEL940-989/E990V); assay: VEGF-R2 coupled spectrophotometric (FLVK-P) assay; conditions: read-out: VEGF % inhibition at 20 μM, 20 μM; combinatorial library compounds
T3 construct: VEGF-R2Δ50 contains residues 806-939 and 990-1171; made in house; host or cells: baculovirus/insect cells
T3 sequence (P35968 with tags, fused parts or gaps DEL940-989/E990V limits assumed): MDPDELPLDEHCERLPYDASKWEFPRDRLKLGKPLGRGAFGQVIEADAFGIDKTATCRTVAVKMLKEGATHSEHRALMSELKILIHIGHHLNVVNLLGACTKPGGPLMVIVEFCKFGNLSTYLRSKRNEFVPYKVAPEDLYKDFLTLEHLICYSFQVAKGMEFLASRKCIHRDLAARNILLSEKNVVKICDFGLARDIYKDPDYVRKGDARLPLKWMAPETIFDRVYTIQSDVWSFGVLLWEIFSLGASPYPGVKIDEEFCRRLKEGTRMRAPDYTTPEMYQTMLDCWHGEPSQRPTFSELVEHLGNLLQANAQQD
Outline: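 Baculovirus-expressed human VEGF-R2Δ50 (residues 806-939/990-1171, E990V) was autophosphorylated with 3 mM ATP, 40 mM MgCl2 for 2 h at 4° C. ADP formation was coupled via PK/LDH to NADH oxidation, read at 340 nm, with 5.1 mM poly(E4Y1), 1 mM ATP, 25 mM MgCl2, Hepes pH 7.5. Ki came from activity across compound concentrations.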

Compound | inhibition at 1 µM (CDK2/Cyclin A complex) [%] | inhibition at 20 µM (FL-CHK1) [%] | inhibition at 1 µM (CDK4/Cyclin D3 complex) [%] | inhibition at 20 µM [1] [%]
CC(C)c1ccc(Nc2nc(N)c(-c3nc(-c4ccc(O)c(O)c4)cs3)s2)cc1 | 23.8 | 31.6 | 62.7 | 28
CC(C)c1ccc(Nc2nc(N)c(-c3nc(-c4ccc5ccccc5c4)cs3)s2)cc1 | 17.2 | 10.7 | 51.2 | -2
CC(C)c1ccc(Nc2nc(N)c(-c3nc(-c4ccc(Cl)c([N+](=O)[O-])c4)cs3)s2)cc1 | 14.2 | 23.5 | 71.5 | 7
CC(C)c1ccc(Nc2nc(N)c(-c3nc(-c4ccc(-c5ccc(Cl)cc5Cl)o4)cs3)s2)cc1 | 15.1 | -7.9 | 49.7 | 3
COc1ccccc1-c1csc(-c2sc(Nc3ccc(C(C)C)cc3)nc2N)n1 | 6.3 | 15.6 | 53.3 | -13
Cc1ccc(-c2csc(-c3sc(Nc4ccc(C(C)C)cc4)nc3N)n2)cc1 | 14.2 | 0.8 | 55.9 | -2
COc1ccc(-c2csc(-c3sc(Nc4ccc(C(C)C)cc4)nc3N)n2)c(OC)c1 | -22.6 | 1.8 | 38.2 | -10
CC(C)c1ccc(Nc2nc(N)c(-c3nc(-c4ccc(Cl)cc4)cs3)s2)cc1 | 10.8 | -0.2 | 53.1 | -2
COc1ccc(OC)c(-c2csc(-c3sc(Nc4ccc(C(C)C)cc4)nc3N)n2)c1 | 12.2 | -5.2 | 79.4 | 12
CCOC(=O)c1cc(-c2csc(-c3sc(Nc4ccc(C(C)C)cc4)nc3N)n2)on1 | 15 | -5.7 | 28.7 | 9
CC(C)c1ccc(Nc2nc(N)c(-c3nc(-c4ccccc4[N+](=O)[O-])cs3)s2)cc1 | 17.7 | 32.2 | 63 | 16
CC(C)c1ccc(Nc2nc(N)c(-c3nc(-c4ccc([N+](=O)[O-])cc4)cs3)s2)cc1 | 17.8 | 6 | 35.6 | -4
Cc1cc(-c2csc(-c3sc(Nc4ccc(C(C)C)cc4)nc3N)n2)ccc1Cl | 11.7 | 9 | 9.1 | -7
CC(C)c1ccc(Nc2nc(N)c(-c3nc(-c4ccc(-c5ccccc5)cc4)cs3)s2)cc1 | 9.6 | 3.2 | 0.7 | -9
CC(C)c1ccc(Nc2nc(N)c(-c3nc(-c4ccc(C#N)cc4)cs3)s2)cc1 | 5.9 | 7.1 | 58.4 | 7
CC(C)c1ccc(Nc2nc(N)c(-c3nc(-c4ccc(Cl)cc4Cl)cs3)s2)cc1 | 25.7 | 21.4 | 81.4 | 23
Cc1onc(-c2ccccc2)c1-c1csc(-c2sc(Nc3ccc(C(C)C)cc3)nc2N)n1 | 11.1 | -0.9 | 49.8 | 5
CC(C)c1ccc(Nc2nc(N)c(-c3nc(-c4ccc5c(c4)OCCO5)cs3)s2)cc1 | 22 | 23.8 | 50.6 | 14
CC(C)c1ccc(Nc2nc(N)c(-c3nc(-c4ccc(F)cc4)cs3)s2)cc1 | 16.1 | 39.8 | 80.7 | 48
